In ChEMBL document CHEMBL4311946, “Mechanistic Insight on the Mode of Action of Colletoic Acid” (J Med Chem, 2019):
Calls of active or inactive are those of the source. The rule behind the calls is not given here.

Columns and labels:
[1] = test system: 3T3-L1; assay: Cytotoxicity against mouse 3T3L1 cells measured after 72 hrs by celltiter-glo luminescent cell viability assay; format: ADME, cell-based; conditions: 3T3-L1, 72 h
[2] = test system: 3T3-L1; assay: Cell cycle arrest in mouse 3T3L1 preadipocytes up to 1 mM measured after 24 hrs under non-differentiating medium by propidium iodide staining-based flow cytometry; format: ADME; conditions: 3t3-l1, 24 h
[3] = test system: 3T3-L1; assay: Cell cycle arrest in mouse 3T3L1 cells up to 1 mM measured after 24 hrs under induction medium containing dehydrocorticosterone/cortisone by propidium iodide staining-based flow cytometry; format: ADME; conditions: 3t3-l1, 24 h
[4] = test system: 3T3-L1; assay: Inhibition of cell differentiation in mouse 3T3L1 cells assessed as reduction in pre-adipocyte differentiation into matured adipocytes at 50 uM incubated for 48 hrs under induction medium containing dehydrocorticosterone/cortisone followed by shifting to differentiation medium and measured after 7 days by Oil red O staining-based microscopic analysis; format: functional
[5] = test system: 3T3-L1; assay: (§1) Anti-adipogenic activity in mouse 3T3L1 preadipocytes assessed as decrease in lipid accumulation at 10 uM incubated for 48 hrs under induction medium containing dehydrocorticosterone/cortisone followed by shifting to differentiation medium and measured after 7 days by Oil red O staining-based microscopic analysis; format: functional, cell-based
[6] = test system: 3T3-L1; assay: as §1, with “restoration of cell morphology” for “decrease in lipid accumulation”, “50” for “10”, “mitotracker red/lipidtox green” for “Oil red O”, “staining-based confocal” for “staining-based”; format: functional
[7] = species: Homo sapiens; assay: (§2) Anti-adipogenic activity in human visceral preadipocytes assessed as reduction in pre-adipocyte differentiation into matured adipocytes at 50 uM incubated for 48 hrs under induction medium containing hydrocortisone hemi-succinate prior to compound washout followed by shifting to differentiation medium containing compound supplemented with fresh medium every 48 to 72 hrs for 9 to 14 days by oil red O staining-based microscopic analysis; format: functional, cell-based
[8] = test system: Homo sapiens; assay: as §2, with “subcutaneous” for “visceral”; format: functional, cell-based
[9] = test system: 3T3-L1; assay: Anti-adipogenic activity in differentiated mouse 3T3L1 cells assessed as reduction in FABP4 mRNA expression at 50 to 100 uM measured after 2 to 7 days by SYBR green dye-based qRT-PCR analysis relative to control; format: functional
[10] = species: Homo sapiens; assay: as §2, with “decrease” for “reduction”, “lipid accumulation” for “pre-adipocyte differentiation into matured adipocytes”; format: functional, cell-based
[11] = test system: Homo sapiens; assay: Anti-adipogenic activity in human subcutaneous preadipocytes assessed as decrease in lipid accumulation at 50 uM measured after 3 days under induction medium containing hydrocortisone hemi-succinate by oil red O staining-based microscopic analysis; format: functional, cell-based
[12] = test system: 3T3-L1; assay: Anti-adipogenic activity in mouse 3T3L1 preadipocytes assessed as reduction in C/EBPalpha mRNA expression at 50 to 100 uM measured daily for 2 days under induction media containing dehydrocorticosterone/cortisone by SYBR green dye-based qRT-PCR analysis; format: functional, cell-based
[13] = test system: 3T3-L1; assay: Anti-adipogenic activity in differentiated mouse 3T3L1 cells assessed as reduction in PPARgamma mRNA expression at 50 to 100 uM measured after 2 to 7 days by SYBR green dye-based qRT-PCR analysis; format: functional, cell-based
[14] = test system: 3T3-L1; assay: Anti-adipogenic activity in differentiated mouse 3T3L1 cells assessed as reduction in PGC1alpha mRNA expression at 50 to 100 uM measured after 2 to 7 days by SYBR green dye-based qRT-PCR analysis relative to control; format: functional
[15] = test system: 3T3-L1; assay: Anti-adipogenic activity in differentiated mouse 3T3L1 cells assessed as reduction in 11beta-HSD1 mRNA expression at 50 to 100 uM measured after 2 to 7 days by SYBR green dye-based qRT-PCR analysis; format: functional, cell-based
[16] = test system: 3T3-L1; assay: Anti-adipogenic activity in differentiated mouse 3T3L1 cells assessed as reduction in Glut4 mRNA expression at 50 to 100 uM measured after 2 to 7 days by SYBR green dye-based qRT-PCR analysis; format: functional, cell-based
[17] = test system: 3T3-L1; assay: Anti-adipogenic activity in differentiated mouse 3T3L1 cells assessed as reduction in ACACB mRNA expression at 50 to 100 uM measured after 2 to 7 days by SYBR green dye-based qRT-PCR analysis; format: functional, cell-based
[18] = test system: 3T3-L1; assay: Anti-adipogenic activity in differentiated mouse 3T3L1 cells assessed as reduction in FASN mRNA expression at 50 to 100 uM measured after 2 to 7 days by SYBR green dye-based qRT-PCR analysis relative to control; format: functional
[19] = test system: 3T3-L1; assay: Anti-adipogenic activity in differentiated mouse 3T3L1 cells assessed as reduction in 11beta-HSD1 expression at 50 uM measured on day 3 by Western blot analysis; format: functional, cell-based
[20] = test system: 3T3-L1; assay: Anti-adipogenic activity in differentiated mouse 3T3L1 cells assessed as reduction in PPARgamma expression at 50 uM measured on day 3 by Western blot analysis; format: functional, cell-based
[21] = test system: 3T3-L1; assay: Anti-adipogenic activity in differentiated mouse 3T3L1 cells assessed as reduction in PGC1alpha expression at 50 uM measured on day 3 by Western blot analysis; format: functional, cell-based
[22] = test system: 3T3-L1; assay: Anti-adipogenic activity in differentiated mouse 3T3L1 cells assessed as reduction in 11beta-HSD1 expression at 50 uM measured on day 7 by Western blot analysis; format: functional, cell-based
[23] = test system: 3T3-L1; assay: Effect on total GR expression in differentiated mouse 3T3L1 cells at 50 uM measured on day 3 and 7 by Western blot analysis; format: ADME, cell-based; conditions: 3t3-l1, 50 µM
[24] = test system: 3T3-L1; assay: Anti-adipogenic activity in differentiated mouse 3T3L1 cells assessed as reduction in mitochondrial mass at 50 uM measured on day 7 by mitotracker deep red/hoechst 33342 staining-based confocal imaging analysis; format: functional, cell-based
[25] = test system: Fibroblast; assay: Effect on nascent protein synthesis in mouse fibroblasts assessed as reduction in O-Propargyl-puromycin incorporation at 50 uM by fluorescent azide/pico green dye-based confocal microscopic analysis; format: ADME, cell-based
[26] = target: T1, Peroxisome proliferator-activated receptor gamma (Homo sapiens) (UniProt P37231); assay: Antagonist activity at human PPARgamma expressed in 293H cells assessed as reduction in rosiglitazone-induced transcriptional response at 0.002 to 4 uM preincubated for 30 mins followed by rosiglitazone addition and measured after 16 hrs by reporter gene-based FRET assay; format: cell-based
T1 sequence (whole entry): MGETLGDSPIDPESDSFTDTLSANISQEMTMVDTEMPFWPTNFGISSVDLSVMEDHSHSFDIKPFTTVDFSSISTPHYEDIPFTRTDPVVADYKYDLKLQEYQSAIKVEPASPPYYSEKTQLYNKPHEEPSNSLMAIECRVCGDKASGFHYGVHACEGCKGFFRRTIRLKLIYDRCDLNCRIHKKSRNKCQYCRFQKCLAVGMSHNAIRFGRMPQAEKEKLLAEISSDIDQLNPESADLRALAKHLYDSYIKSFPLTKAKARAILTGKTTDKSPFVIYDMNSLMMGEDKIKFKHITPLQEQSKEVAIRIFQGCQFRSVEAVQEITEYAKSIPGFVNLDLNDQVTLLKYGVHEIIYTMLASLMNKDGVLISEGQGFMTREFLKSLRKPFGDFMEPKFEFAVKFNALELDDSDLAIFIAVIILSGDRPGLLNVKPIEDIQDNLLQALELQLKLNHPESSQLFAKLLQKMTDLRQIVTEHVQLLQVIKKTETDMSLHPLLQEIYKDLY

[27] = Half life in mouse liver microsomes; format: ADME, Microsome
[28] = Half life in human liver microsomes; format: ADME, Microsome
[29] = Volume of distribution at steady state in C57BL6 mouse at 5 to 30 mg/kg, iv by LC-MS analysis; format: ADME, organism-based; conditions: in vivo

Activity [26]: inactive
t1/2 [27]: 1.33 h
t1/2 [28]: 1.18 h
Vdss [29]: 0.247 L/kg
Compound: CC1=CC[C@@]2(C[C@@H]1O)[C@@H](C(=O)O)CC[C@H]2C(C)C
EC50 [1]: > 500 µM
Activity [2]: Non-Toxic
Activity [3]: Non-Toxic
inhibition [4]: Active
Activity [5]: Active
Activity [6]: Active
Activity [7]: Active
Activity [8]: Active
fold change (FC) [9]: <10
Activity [10]: Active
Activity [11]: inactive
Activity [12]: Active
Activity [13]: Active
fold change (FC) [14]: <10
Activity [15]: Active
Activity [16]: Active
Activity [17]: Active
fold change (FC) [18]: <10
Activity [19]: inactive
Activity [20]: inactive
Activity [21]: inactive
Activity [22]: Active
Activity [23]: Non-Toxic
Activity [24]: Active
Activity [25]: Non-Toxic
